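Protocol summary: plate cells (96-well), add compound at 5 concentrations, incubate 48 h, interpolate endpoints linearly. Abbreviation: GI50, concentration required for 50% inhibition of growth.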 Active and inactive are the calls of the source. Cut-off read from the data, not from the text of the source: active = GI50 up to about 1.1 µM and inactive = higher.
Tests used:
Assay in all cases: inhibition of tumour cell growth, NCI panel, 48 h
IGROV-1 = tested on: IGROV-1
NCI/ADR-RES = tested on: NCI/ADR-RES
EKVX = tested on: EKVX
A498 = tested on: A498
SNB-75 = tested on: SNB-75
SF-539 = tested on: SF-539
SK-MEL-5 = tested on: SK-MEL-5
ACHN = tested on: ACHN
M14 = tested on: M14
SK-MEL-28 = tested on: SK-MEL-28
SF-295 = tested on: SF-295
HOP-62 = tested on: HOP-62
Hs-578T = tested on: Hs-578T
K562 = tested on: K562
UACC-62 = tested on: UACC-62
MDA-N = tested on: MDA-N
NCI-H522 = tested on: NCI-H522
TK-10 = tested on: TK-10
OVCAR-4 = tested on: OVCAR-4
SK-OV-3 = tested on: SK-OV-3

Compound | GI50 (IGROV-1) | GI50 (NCI/ADR-RES) | GI50 (EKVX) | GI50 (A498) | GI50 (SNB-75) | GI50 (SF-539) | GI50 (SK-MEL-5) | GI50 (ACHN) | GI50 (M14) | GI50 (SK-MEL-28) | GI50 (SF-295) | GI50 (HOP-62) | GI50 (Hs-578T) | GI50 (K562) | GI50 (UACC-62) | GI50 (MDA-N) | GI50 (NCI-H522) | GI50 (TK-10) | GI50 (OVCAR-4) | GI50 (SK-OV-3)
NC1=C(c2nc(-c3ccccc3)cs2)C(c2ccco2)c2c(c3ccccc3oc2=O)O1 (stereo not given) | > 100 µM (inactive) | > 100 µM (inactive) | > 100 µM (inactive) | > 100 µM (inactive) | > 100 µM (inactive) | > 100 µM (inactive) | > 100 µM (inactive) | > 100 µM (inactive) | > 100 µM (inactive) | > 100 µM (inactive) | > 100 µM (inactive) | > 100 µM (inactive) | 3.32 µM (inactive) | > 100 µM (inactive) | > 100 µM (inactive) | > 100 µM (inactive) | 76.2 µM (inactive) | > 100 µM (inactive) | > 100 µM (inactive) | > 100 µM (inactive)
CC1=NN(c2ccc(C)cc2)C2(C1)SCC(=O)N2c1nc2ccccc2s1 (stereo not given) | 12.9 µM (inactive) | 16.2 µM (inactive) | 21.9 µM (inactive) | 19.6 µM (inactive) | 16.1 µM (inactive) | 19 µM (inactive) | 11.4 µM (inactive) | 15.6 µM (inactive) | 22.7 µM (inactive) | 24.2 µM (inactive) | 13 µM (inactive) | 16.9 µM (inactive) | 32.1 µM (inactive) | 24.2 µM (inactive) | 14.3 µM (inactive) | 20.7 µM (inactive) | 16.7 µM (inactive) | 28 µM (inactive) | 20.2 µM (inactive) | 22.1 µM (inactive)
CCCCCCCCCCCCCC(=O)OC(/C=C/C(C)C)C(O)C(O)C(OC)C(=O)NC1CCCCNC1=O (stereo not given) | 0.527 µM (active) | > 10 µM (inactive) | 3.82 µM (inactive) | 5.21 µM (inactive) | 2.05 µM (inactive) | 1.38 µM (inactive) | 1.9 µM (inactive) | 0.689 µM (active) | 0.655 µM (active) | 1.61 µM (inactive) | 0.721 µM (active) | 1.61 µM (inactive) | 9.79 µM (inactive) | 0.627 µM (active) | 0.697 µM (active) | 9.04 µM (inactive) | 0.836 µM (active) | 5.6 µM (inactive) | 1.86 µM (inactive) | 2.54 µM (inactive)
CC(C)C(C)/C=C\C(C)C1CCC2C3=CC=C4CC(O)CCC4(C)C3CCC21C (stereo not given) | 31.4 µM (inactive) | > 41.3 µM (inactive) | > 39.4 µM (inactive) | > 85.5 µM (inactive) | > 42.8 µM (inactive) | > 44.6 µM (inactive) | 23.8 µM (inactive) | > 42 µM (inactive) | > 46.8 µM (inactive) | > 41.7 µM (inactive) | > 64.9 µM (inactive) | > 51.1 µM (inactive) | > 41.3 µM (inactive) | 26.5 µM (inactive) | > 44.6 µM (inactive) | > 46.2 µM (inactive) | 38.6 µM (inactive) | > 55 µM (inactive) | > 100 µM (inactive) | > 100 µM (inactive)
COC(=O)/N=[N+](\[O-])C(c1ccc(OC)cc1)C1CCCCC1 (stereo not given) | 4.18 µM (inactive) | 2.11 µM (inactive) | 0.991 µM (active) | 6.67 µM (inactive) | 5.22 µM (inactive) | 12.3 µM (inactive) | 2.08 µM (inactive) | 2.56 µM (inactive) | 2.99 µM (inactive) | 13.6 µM (inactive) | 1.82 µM (inactive) | 4.84 µM (inactive) | 6.3 µM (inactive) | 2.67 µM (inactive) | 6.03 µM (inactive) | 2.03 µM (inactive) | 1.03 µM (active) | 3.58 µM (inactive) | 0.802 µM (active) | 3.67 µM (inactive)
CC(C)c1c(O[Si](C(C)C)(C(C)C)C(C)C)c2c3c(ccc4c3c1OC4(C)C)C(C)CC2 (stereo not given) | > 100 µM (inactive) | > 100 µM (inactive) | > 100 µM (inactive) | > 100 µM (inactive) | 21.3 µM (inactive) | > 100 µM (inactive) | > 100 µM (inactive) | > 100 µM (inactive) | > 100 µM (inactive) | > 100 µM (inactive) | > 100 µM (inactive) | > 100 µM (inactive) | > 100 µM (inactive) | > 100 µM (inactive) | > 100 µM (inactive) | > 100 µM (inactive) | > 100 µM (inactive) | > 100 µM (inactive) | > 100 µM (inactive) | > 100 µM (inactive)
CC(C)(C)c1cc2c(OC/C=C/c3ccccc3)c(c1)Cc1cc(C(C#N)(OC/C=C/c3ccccc3)OC/C=C/c3ccccc3)cc(c1OC/C=C\c1ccccc1)Cc1cc(C(C)(C)C)cc(c1OC/C=C/c1ccccc1)Cc1cc(C(C#N)(OC/C=C\c3ccccc3)OC/C=C/c3ccccc3)cc(c1OC/C=C\c1ccccc1)C2 (stereo not given) | > 100 µM (inactive) | > 100 µM (inactive) | > 100 µM (inactive) | > 100 µM (inactive) | > 100 µM (inactive) | > 100 µM (inactive) | > 100 µM (inactive) | > 100 µM (inactive) | 36.6 µM (inactive) | > 100 µM (inactive) | > 100 µM (inactive) | > 100 µM (inactive) | > 100 µM (inactive) | > 100 µM (inactive) | > 100 µM (inactive) | > 100 µM (inactive) | > 100 µM (inactive) | 1.95 µM (inactive) | > 100 µM (inactive) | > 100 µM (inactive)
O=C(O)Cn1ncn(NC(=O)Cc2ccccc2)c1=S | > 10 µM (inactive) | > 10 µM (inactive) | > 10 µM (inactive) | > 10 µM (inactive) | > 10 µM (inactive) | > 10 µM (inactive) | > 10 µM (inactive) | > 10 µM (inactive) | > 10 µM (inactive) | > 10 µM (inactive) | > 10 µM (inactive) | > 10 µM (inactive) | > 10 µM (inactive) | > 10 µM (inactive) | > 10 µM (inactive) | > 10 µM (inactive) | > 10 µM (inactive) | > 10 µM (inactive) | > 10 µM (inactive) | > 10 µM (inactive)
Cc1ncc([N+](=O)[O-])n1CCNC(=O)CCCn1cnc([N+](=O)[O-])n1 | > 100 µM (inactive) | > 100 µM (inactive) | > 31.6 µM (inactive) | > 84.3 µM (inactive) | 98.6 µM (inactive) | > 100 µM (inactive) | > 72.4 µM (inactive) | > 100 µM (inactive) | > 100 µM (inactive) | > 100 µM (inactive) | > 100 µM (inactive) | > 100 µM (inactive) | > 100 µM (inactive) | > 100 µM (inactive) | > 100 µM (inactive) | > 100 µM (inactive) | > 100 µM (inactive) | > 45.8 µM (inactive) | > 100 µM (inactive) | > 100 µM (inactive)
CN(C)CC1=Nc2cccc3cccc(c23)N1 | 18.5 µM (inactive) | 33.7 µM (inactive) | 17.2 µM (inactive) | 14.9 µM (inactive) | 16.7 µM (inactive) | 19.8 µM (inactive) | 15.4 µM (inactive) | 14.9 µM (inactive) | 19.5 µM (inactive) | 22.1 µM (inactive) | > 100 µM (inactive) | > 100 µM (inactive) | 34.7 µM (inactive) | 16.7 µM (inactive) | 16.1 µM (inactive) | 18.4 µM (inactive) | 1.89 µM (inactive) | 18.4 µM (inactive) | 13.3 µM (inactive) | > 100 µM (inactive)
COc1ccc2nc3ccccc3c(NCCCCCN(CCCl)CCCl)c2c1 | 0.177 µM (active) | 0.0399 µM (active) | 0.485 µM (active) | 0.206 µM (active) | 0.0462 µM (active) | 0.0787 µM (active) | 0.119 µM (active) | 0.0266 µM (active) | 0.0581 µM (active) | 0.214 µM (active) | 0.0255 µM (active) | 0.0776 µM (active) | 0.358 µM (active) | 0.0229 µM (active) | 0.036 µM (active) | 0.121 µM (active) | 0.0267 µM (active) | 0.381 µM (active) | 0.0658 µM (active) | 0.192 µM (active)
CC(=O)OCC1C(=O)OCC1C(=O)N1Cc2cc3ccccc3nc2C1 (stereo not given) | 10.1 µM (inactive) | 0.69 µM (active) | 8.05 µM (inactive) | 5.08 µM (inactive) | 4.58 µM (inactive) | 6 µM (inactive) | 10.2 µM (inactive) | 1.36 µM (inactive) | 1.56 µM (inactive) | 2.55 µM (inactive) | 16.1 µM (inactive) | 16.6 µM (inactive) | 7.14 µM (inactive) | 0.676 µM (active) | 3.46 µM (inactive) | 2.75 µM (inactive) | 0.714 µM (active) | 1.61 µM (inactive) | 1.65 µM (inactive) | 16.7 µM (inactive)
Cc1ccc2[nH]c(=N/c3ccccc3C)/c(=N\c3ccccc3C)[nH]c2c1 | 20 µM (inactive) | 30 µM (inactive) | 24.5 µM (inactive) | 26.9 µM (inactive) | 34.7 µM (inactive) | 37.2 µM (inactive) | 22.1 µM (inactive) | 31.3 µM (inactive) | 43.8 µM (inactive) | 64.4 µM (inactive) | 21.4 µM (inactive) | 40.2 µM (inactive) | 24.1 µM (inactive) | 23.8 µM (inactive) | 26.3 µM (inactive) | 25.5 µM (inactive) | 10.2 µM (inactive) | 38.5 µM (inactive) | 47.2 µM (inactive) | 43 µM (inactive)

Source: ChEMBL document CHEMBL1201862, “PubChem BioAssay data set” (2004)
